Structures are written as SMILES. ≈ marks a conversion by molar mass, not a printed value. Calls of active or inactive are those of the source. Unless noted, the calls are words filed in the database; no cut-off is given here.

The subject of one data set is Bacillus subtilis. As to the kind of experiment: Antibacterial activity against Bacillus subtilis by CLSI method. Type of data set: functional.
Data set [1] relates to Staphylococcus aureus. Nature of the data set: Antibacterial activity against methicillin-resistant Staphylococcus aureus ATCC 33591 by CLSI method. Format: functional, organism-based.
For data set [2], the system named is Staphylococcus aureus. Nature of the data set: Antibacterial activity against Staphylococcus aureus ATCC 29213 by CLSI method. Format: functional, organism-based.
The test system of a further data set is Plasmodium falciparum. Nature of the data set: Antimalarial activity against chloroquine-sensitive Plasmodium falciparum D6 assessed as plasmodial LDH activity after 72 hrs. Format: functional, organism-based. As to conditions: D6, 72 h.
Data set [3] concerns Leishmania donovani. As to the kind of experiment: Antileishmanial activity against promastigote of Leishmania donovani after 72 hrs by alamar blue assay. Type of data set: functional, organism-based. The conditions noted are these: Leishmania donovani, 72 h; for IC50: read-out: IC50. A general note: Resazurin is reduced to fluorescent resorufin, in cell work by metabolically active cells.

For data set [4], the system named is Leishmania donovani. As to the kind of experiment: Antileishmanial activity against axenic amastigote of Leishmania donovani after 72 hrs by alamar blue assay. Type of data set: functional, organism-based. The conditions noted are these: for IC50: read-out: IC50.
The next data set concerns Vero. As to the kind of experiment: Cytotoxicity against african green monkey Vero cells up to 4.6 ug/ml after 48 hrs by neutral red assay. Format: cell-based. The conditions noted are these: chlorocebus sabaeus.
The test system of data set [5] is Mycobacterium intracellulare. As to the kind of experiment: Antibacterial activity against Mycobacterium intracellulare ATCC 23068 by alamar blue assay. Format: functional, organism-based.
The subject of a further data set is Candida albicans. As to the kind of experiment: Antifungal activity against Candida albicans ATCC 90028 by CLSI method. Type of data set: functional, organism-based.
Another data set relates to Aspergillus fumigatus. As to the kind of experiment: Antifungal activity against Aspergillus fumigatus ATCC 204305 by CLSI method. Type of data set: functional, organism-based.
The subject of the next data set is Cryptococcus neoformans. Nature of the data set: Antifungal activity against Cryptococcus neoformans ATCC 90113 by CLSI method. Type of data set: functional, organism-based.
Setting [6] is: Staphylococcus aureus, ATCC 33591.
[7] abbreviates: Staphylococcus aureus, ATCC 33591, read-out: IC50.

Usually MIC stands for the least concentration at which growth counts as inhibited. As for `O=C1N[C@@H](c2c[nH]c3cc(Br)ccc23)CN=C1c1c[nH]c2cc(Br)ccc12` [HAMACANTHIN A], the MIC came out at 3.22 µM (≈ 1.57 µg/mL) in the data set on Bacillus subtilis, 6.45 µM (≈ 3.14 µg/mL) against Staphylococcus aureus [1] (setting [6]) and 6.45 µM (≈ 3.14 µg/mL) with Staphylococcus aureus [2].

Broadly, the IC50 is the midpoint of a concentration-inhibition curve. The term IC90 denotes the concentration needed for an effect of 90%. In general, MBC refers to the lowest tested concentration that kills the bacteria rather than only halting them. In the case of `Clc1cccc(Cl)c1C(c1c[nH]c2ccccc12)c1c[nH]c2ccccc12`, in the data set with Plasmodium falciparum, the IC50 was found to be 12.1 µM. For the same compound, in the data set with Leishmania donovani [3], the IC90 was 90.8 µM and the IC50 came out at 80.7 µM. Moreover, in the data set on Staphylococcus aureus [1], the IC50 entry is reported as “Not Active”, the MBC result is “inactive” and the MIC result was “inactive”. For the same compound, in the data set on Leishmania donovani [4] (Leishmania donovani, 72 h), the IC90 stood at 81.5 µM and the half-inhibitory concentration (IC50) was 48.4 µM. Also, in the data set on Vero, the Activity entry is reported as “Non-toxic”. Also, in the data set on Staphylococcus aureus [2], the half-maximal inhibitory concentration (IC50) was determined as 2.36 µM, the MBC came to 51.3 µM (≈ 20.1 µg/mL) and the MIC stood at 6.41 µM (≈ 2.51 µg/mL). For the same compound, in [5], the IC50 result is given as “Not Active”, the MBC result was “inactive” and the MIC entry is “inactive”.

As usually defined, the MFC is the lowest tested concentration that kills the fungus rather than only halting it. For the compound `Clc1ccc(C(c2c[nH]c3ccccc23)c2c[nH]c3ccccc23)cc1`, the result in the data set with Candida albicans and in the data set on Aspergillus fumigatus was inactive. For the same compound, the IC90 worked out at 39 µM in the data set on Leishmania donovani [3] and 77 µM in the data set with Leishmania donovani [4] (Leishmania donovani, 72 h). Also, the IC50 in the data set on Leishmania donovani [3] is 26.7 µM; in the data set on Staphylococcus aureus [1] (setting [7]) it was 6.12 µM; with Cryptococcus neoformans, 5.56 µM; with Leishmania donovani [4] (Leishmania donovani, 72 h), 42 µM; in the data set with Staphylococcus aureus [2], 3.79 µM; in data set [5], “Not Active”. In the data set with Staphylococcus aureus [1] (setting [6]), this compound came in with an MBC of 56.2 µM (≈ 20.1 µg/mL). For the same compound, the minimal inhibitory concentration (MIC) came to 14 µM (≈ 5 µg/mL) against Staphylococcus aureus [1] (setting [6]), 14 µM (≈ 5.01 µg/mL) with Cryptococcus neoformans and 7.02 µM (≈ 2.51 µg/mL) in the data set with Staphylococcus aureus [2]. The compound further had an MFC in the data set on Cryptococcus neoformans of 14 µM (≈ 5.01 µg/mL). In the data set with Vero, the Activity result was “Non-toxic”. Moreover, the MBC result (with Staphylococcus aureus [2]; in data set [5]) was “inactive” throughout. For the same compound, in data set [5], the MIC entry was “inactive”.

Regarding `Oc1ccccc1C(c1c[nH]c2ccccc12)c1c[nH]c2ccccc12`, the outcome in the data set with Candida albicans and in the data set with Aspergillus fumigatus was inactive. Moreover, in the data set with Leishmania donovani [3], it took 75.7 µM to reach the 90% level (IC90). The IC50 in the data set with Leishmania donovani [3] is 41.1 µM; with Staphylococcus aureus [1] (setting [7]), 36.2 µM; with Cryptococcus neoformans, 14.6 µM; in the data set on Leishmania donovani [4] (Leishmania donovani, 72 h) it was 95.9 µM; with Staphylococcus aureus [2] it was 17.2 µM; in data set [5] it was “Not Active”. The MBC entry (in the data set with Staphylococcus aureus [1]; with Staphylococcus aureus [2]; in data set [5]) was “inactive” in each case. For the same compound, the MIC result (with Staphylococcus aureus [1]; in data set [5]) was “inactive” in each case. For the same compound, in the data set with Cryptococcus neoformans, the MFC result is “inactive”. For the same compound, the MIC against Cryptococcus neoformans and against Staphylococcus aureus [2] was 59.2 µM (≈ 20 µg/mL) each time. Also, the IC90 entry in the data set with Leishmania donovani [4] was “inactive”. Further, the Activity entry with Vero was “Non-toxic”.

Consider `COc1ccc2[nH]cc(C(c3cc(F)cc(F)c3)c3c[nH]c4ccc(OC)cc34)c2c1`, for which the outcome in the data set with Candida albicans and in the data set with Aspergillus fumigatus was inactive. Moreover, the IC90 in the data set on Leishmania donovani [3] is 65.3 µM; in the data set with Leishmania donovani [4] (Leishmania donovani, 72 h), 78.7 µM. In addition, the IC50 was 26.8 µM with Leishmania donovani [3]; 6.89 µM with Staphylococcus aureus [1] (setting [7]); 18.4 µM with Cryptococcus neoformans; 49.6 µM in the data set with Leishmania donovani [4] (Leishmania donovani, 72 h); 4.05 µM with Staphylococcus aureus [2]; “Not Active” in data set [5]. For the same compound, the MBC entry (in the data set on Staphylococcus aureus [1]; with Staphylococcus aureus [2]; in data set [5]) was “inactive” throughout. The MIC turned out to be 11.7 µM (≈ 4.9 µg/mL) against Staphylococcus aureus [1] (setting [6]), 47.9 µM (≈ 20 µg/mL) against Cryptococcus neoformans and 11.7 µM (≈ 4.9 µg/mL) against Staphylococcus aureus [2]. Further, in the data set on Cryptococcus neoformans, the MFC entry was “inactive”. In addition, in the data set with Vero, the Activity entry is “Non-toxic”. Besides, the MIC entry in data set [5] is “inactive”.

The values above are taken from ChEMBL document CHEMBL2375321, “Discovery of 3,3'-diindolylmethanes as potent antileishmanial agents” (Eur J Med Chem, 2013).
